This note sets out measurements from patent EP0356739B1, “Recombinant DNA, microorganism carrying said recombinant DNA, and process for producing L-amino acids by the use of said microorganism” (AJINOMOTO CO., INC., priority 1988, dated 1990).

Experiment [1] has as its system acetohydroxy acid synthase. In words: Acetohydroxy acid synthase activity of crude enzyme solution from wild-type strain ATCC13869, with amino acid added (feedback inhibition). Format: biochemical, Brevibacterium lactofermentum. The following applies: Amino acid added (5mM), 65mM phosphate buffer, 100mM sodium pyruvate. An excerpt: (§1) In order to confirm that the DNA donor strain or transformant imparted with resistance to antagonist contains a mutant-type gene that codes for acetohydroxy acid synthase with reduced feedback inhibition by L-valine, L-leucine or L-isoleucine, it is necessary to prepare an enzyme solution from that antagonist-resistant strain or transformant, to allow this solution to act upon pyruvic acid ( as substrate ) in the presence of L-valine, L-leucine or L-isoleucine, and to measure the amount of 2-acetolactic acid formed.
(§2) A strain being tested was cultivated in production medium (A) for about 18 hours, the grown cells were ultrasonicated, and the resulting solution was centrifuged at 15,000 r.p.m. for 20 minutes.
(§3) The supernatant thus obtained was used as a crude enzyme solution, which was added to a solution containing 65mM phosphate buffer and 100mM sodium pyruvate to effect enzymic reaction. Acetolactic acid thus formed was converted to acetoin, and the color developed by addition of 2-naphthol was measured at 530 nm.

Experiment [2] has as its system acetohydroxy acid synthase. In words: Acetohydroxy acid synthase activity of crude enzyme solution from transformant AJ12403/pAJ220V3, with amino acid added (feedback inhibition). The following applies: Amino acid added (5mM); crude enzyme of strain AJ12403/pAJ220V3; 65mM phosphate buffer, 100mM sodium pyruvate. Format: biochemical, Brevibacterium lactofermentum.
Excerpt: as §1, §2, §3

With `CC(C)C[C@H](N)C(=O)O` [L-Leu, L-leucine], the figures for the “relative activity values (%) when the activity in the absence of amino acid is taken as 100” value (“relative activity values (%)” for short) in experiment [1] and in experiment [2] were 67% and 119%, respectively.

Consider `CC(C)[C@H](N)C(=O)O` [L-Val, L-valine], for which the “relative activity values (%)” value worked out at 60% in experiment [1] and 108% in experiment [2].

`CC[C@H](C)[C@H](N)C(=O)O` [L-Ile, L-isoleucine]: the “relative activity values (%)” value is 60% in experiment [1] and 101% in experiment [2].
